{"source": "paper PMC4982760", "about": "“Small-molecule inhibitors identify the RAD52-ssDNA interaction as critical for recovery from replication stress and for survival of BRCA2 deficient cells” (eLife, 2016)", "key": {"GM01604 cells": {"test_system": "GM01604 cells", "experiment": "LIVE/DEAD cell viability assay", "type": "cell-based, human", "settings": "1 µM compound", "description": "GM01604 cells were transfected with siRNAs directed against GFP (Ctrl), or against MUS81 (Qiagen), BRCA2 (Sigma-Aldrich), and RAD52 (Qiagen) 48 hr prior to addition of 1 µM ‘1’. Where indicated, the conditions of pathological replication were induced by treating cells with 2 mM HU and 300 nM UCN01 for 6 hr or by 18 hr treatment with 2 mM HU, in the presence or absence of ‘1’. Viability was evaluated by the LIVE/DEAD assay (Sigma-Aldrich) according to the manufacturer’s instructions. Cell number was counted in randomly chosen fields and expressed as percent of dead cells (number of red nuclear stained cells divided by the total cell number) corrected for the cell loss observed in the population. For each time point, at least 200 cells were counted."}, "RAD52": {"target": "T1, RAD52 (Homo sapiens, UniProt P43351)", "T1 construct": "made in house", "T1 sequence (P43351 1-418)": "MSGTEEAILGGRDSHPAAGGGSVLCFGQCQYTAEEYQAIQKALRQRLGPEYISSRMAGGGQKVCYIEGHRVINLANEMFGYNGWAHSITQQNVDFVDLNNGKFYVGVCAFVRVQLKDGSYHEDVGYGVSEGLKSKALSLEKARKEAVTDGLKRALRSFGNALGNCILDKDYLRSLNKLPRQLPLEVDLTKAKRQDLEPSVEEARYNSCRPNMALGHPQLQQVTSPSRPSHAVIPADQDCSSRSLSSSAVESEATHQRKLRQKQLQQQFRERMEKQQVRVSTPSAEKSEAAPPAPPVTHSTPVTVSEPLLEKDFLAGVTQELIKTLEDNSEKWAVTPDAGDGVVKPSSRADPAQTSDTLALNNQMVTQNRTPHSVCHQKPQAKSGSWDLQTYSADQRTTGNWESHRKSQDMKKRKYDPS", "experiment": "WaterLOGSY NMR binding to RAD52", "settings": "20-40 μM compound, 3.3 μM RAD52", "text": "(§1) To confirm that the selected compounds bind RAD52, we employed water-ligand observation with gradient spectroscopy (WaterLOGSY), an NMR technique, which is based on transfer of magnetization from bulk water to the protein-bound compound of interest ([Dalvit et al., 2001], [2000]). In WaterLOGSY spectrum, if a compound binds to a protein, the compound will receive negative nuclear Overhauser effects (NOEs) due to the slow tumbling of the protein-compound complex, leading to a positive WaterLOGSY peak. […] Similarly, the binding of ‘6’to RAD52 is evident from the positive WaterLOGSY peaks that are clearly detected for this compound (Figure 3a).\n(§2) Compound binding to RAD52 and RPA proteins was analyzed using water-ligand observation with gradient spectroscopy (WaterLOGSY) NMR experiments ([Dalvit et al., 2001], [2000]). The WaterLOGSY spectra of compounds in the presence of RAD52 or RPA were acquired using a water NOE mixing time of 1 s and a T2 relaxation filter of 50 ms just before data acquisition to suppress the broad signals derived from protein. The protein buffer used in the experiments contains 10 mM Tris-d11, 75 mM KCl, 0.25 mM EDTA, pH 7.5, and 10% D20. All NMR data were acquired on a Bruker Avance II 800 MHz NMR spectrometer equipped with a sensitive cryoprobe and recorded at 25°C. The ^1H chemical shifts were referenced to 2,2-dimethyl-2-silapentane-5-sulfonate (DSS). NMR spectra were processed using NMR Pipe ([Delaglio et al., 1995]) and analysed using NMR View ([Johnson and Blevins, 1994])."}, "RAD52-dsDNA interaction": {"target": "T2, RAD52-dsDNA interaction (Homo sapiens, UniProt P43351)", "T2 construct": "made in house", "T2 sequence (P43351 1-418)": "T1 sequence (P43351 1-418)", "experiment": "FRET-based RAD52-dsDNA binding assay", "settings": "1 nM dsDNA, 10 nM RAD52"}, "[1]": {"target": "T3, interaction between RAD52 and RPA proteins (Homo sapiens, UniProt P43351)", "T3 construct": "made in house", "T3 sequence (P27694 whole entry partner, one chain of several)": "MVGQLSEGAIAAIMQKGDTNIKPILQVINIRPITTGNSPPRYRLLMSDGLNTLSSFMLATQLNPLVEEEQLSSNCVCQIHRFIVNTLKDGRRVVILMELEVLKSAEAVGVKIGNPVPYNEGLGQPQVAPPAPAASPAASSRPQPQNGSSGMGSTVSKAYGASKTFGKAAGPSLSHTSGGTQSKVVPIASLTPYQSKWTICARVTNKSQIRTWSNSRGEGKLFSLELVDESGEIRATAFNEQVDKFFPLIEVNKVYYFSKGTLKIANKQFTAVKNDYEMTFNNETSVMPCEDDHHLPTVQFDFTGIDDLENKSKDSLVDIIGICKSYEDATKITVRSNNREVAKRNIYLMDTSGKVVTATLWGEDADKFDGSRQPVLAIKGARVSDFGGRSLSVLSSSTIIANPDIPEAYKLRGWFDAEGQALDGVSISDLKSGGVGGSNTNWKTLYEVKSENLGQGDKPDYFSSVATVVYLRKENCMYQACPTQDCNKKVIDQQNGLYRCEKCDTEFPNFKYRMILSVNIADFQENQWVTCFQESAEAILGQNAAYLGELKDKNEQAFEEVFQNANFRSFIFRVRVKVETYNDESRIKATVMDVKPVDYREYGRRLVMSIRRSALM", "T3 sequence (P15927 whole entry partner, one chain of several)": "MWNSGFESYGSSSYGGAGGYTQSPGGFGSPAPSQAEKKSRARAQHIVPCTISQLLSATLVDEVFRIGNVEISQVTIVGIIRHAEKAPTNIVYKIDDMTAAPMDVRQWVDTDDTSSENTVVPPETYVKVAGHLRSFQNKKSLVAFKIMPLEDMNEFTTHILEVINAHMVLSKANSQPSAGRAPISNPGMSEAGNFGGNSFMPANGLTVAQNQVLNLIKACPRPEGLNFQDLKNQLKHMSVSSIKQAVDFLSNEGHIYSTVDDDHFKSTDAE", "T3 sequence (P35244 whole entry partner, one chain of several)": "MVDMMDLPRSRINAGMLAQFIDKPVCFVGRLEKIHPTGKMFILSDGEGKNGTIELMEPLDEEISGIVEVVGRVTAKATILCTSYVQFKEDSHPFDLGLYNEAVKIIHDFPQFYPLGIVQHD", "experiment": "Ni-NTA pull-down of the RAD52-RPA interaction", "type": "binding", "settings": "3 μM RAD52, 3 μM RPA, 3 μM compound"}, "RPA": {"target": "T4, RPA (Homo sapiens, UniProt P15927+P27694+P35244)", "T4 construct": "made in house", "T4 sequence (P27694 whole entry)": "as the sequence (P27694 whole entry partner, one chain of several) above", "T4 sequence (P15927 whole entry)": "as the sequence (P15927 whole entry partner, one chain of several) above", "T4 sequence (P35244 whole entry)": "as the sequence (P35244 whole entry partner, one chain of several) above", "experiment": "WaterLOGSY NMR binding to RPA", "settings": "20-40 μM compound, 3.3 μM RPA", "text": "as §1, §2"}}}
{"smiles": "Oc1cc(O)c2c(c1)O[C@H](c1cc(O)c(O)c(O)c1)[C@H](O)C2", "note": "[Compound 1, (−)−Epigallocatechin]", "values": [{"measurement": "cell death", "setting": "GM01604 cells; BRCA2-depleted GM01604, after replication stress (HU + UCN01)", "value": "~ 80%"}, {"measurement": "dead cells", "setting": "GM01604 cells; MUS81-depleted GM01604, checkpoint-deficient, HU treated", "value": "~60", "unit": "%"}, {"measurement": "dead cells", "setting": "GM01604 cells; MUS81-depleted GM01604, untreated", "value": "approximately 40%"}, {"measurement": "binding to RAD52 (WaterLOGSY)", "setting": "RAD52", "value": "physically interact with RAD52 protein"}, {"measurement": "effect on the RAD52-dsDNA interaction", "setting": "RAD52-dsDNA interaction", "value": "had no effect on the RAD52-dsDNA interaction"}, {"measurement": "effect on the RAD52-RPA interaction", "setting": "[1]", "value": "neither ‘1’ nor ‘6’ interfered with the interaction between the two proteins"}, {"measurement": "binding to RPA (WaterLOGSY)", "setting": "RPA", "value": "neither binds to RPA"}]}
